{
  "source": "paper PMC9516332",
  "about": "(Frontiers in Oncology, 2022)",
  "test_system": "134 cancer cell lines",
  "test": "Cell viability assay (ATPlite, 72 hours), IC50 on cancer cell line panel",
  "note": "Where two headings read alike, the source gives them in different places.",
  "data": [
    {"smiles": "FC(F)(F)c1ccc(CNc2ccc(Cc3c[nH]c4ncc(Cl)cc34)cn2)cn1", "note": "[pexidartinib]", "values": [
      {"measurement": "IC50", "setting": "Homo sapiens, MKN-45, read-out: IC50 in cell proliferation assay, MKN45 cell line (MET amplification)", "result": "> 31.6", "unit": "µM"},
      {"measurement": "IC50", "setting": "Homo sapiens, MOLM-13, read-out: IC50 in cell proliferation assay, MOLM-13 cell line (FLT3 ITD)", "result": 0.191, "unit": "µM"},
      {"measurement": "IC50", "setting": "Homo sapiens, MOLT-4, read-out: IC50 in cell proliferation assay, MOLT-4 cell line", "result": "> 31.6", "unit": "µM"},
      {"measurement": "IC50", "setting": "Homo sapiens, MV4-11, read-out: IC50 in cell proliferation assay, MV4-11 cell line (FLT3 ITD)", "result": 0.254, "unit": "µM"},
      {"measurement": "IC50", "setting": "Homo sapiens, MeWo, read-out: IC50 in cell proliferation assay, MeWo cell line", "result": "> 31.6", "unit": "µM"},
      {"measurement": "IC50", "setting": "Homo sapiens, NCCIT, read-out: IC50 in cell proliferation assay, NCC-IT cell line", "result": "> 31.6", "unit": "µM"},
      {"measurement": "IC50", "setting": "Homo sapiens, NCI-H82, read-out: IC50 in cell proliferation assay, cell line NCI-H82", "result": "> 31.6", "unit": "µM"},
      {"measurement": "IC50", "setting": "Homo sapiens, NCI-H460, read-out: IC50 in cell proliferation assay, NCI-H460 cell line", "result": 3.33, "unit": "µM"},
      {"measurement": "IC50", "setting": "Homo sapiens, NCI-H661, read-out: IC50 in cell proliferation assay, NCI-H661 cell line", "result": "> 31.6", "unit": "µM"},
      {"measurement": "IC50", "setting": "Homo sapiens, NCI-H716, read-out: IC50 in cell proliferation assay, cell line NCI-H716 (FGFR2-COL14A1)", "result": 17, "unit": "µM"},
      {"measurement": "IC50", "setting": "Homo sapiens, NCI-H1650, read-out: IC50 in cell proliferation assay, NCI-H1650 cell line (EGFR exon19del)", "result": "> 31.6", "unit": "µM"},
      {"measurement": "IC50", "setting": "Homo sapiens, NCI-H1975, read-out: IC50 in cell proliferation assay, NCI-H1975 cell line (EGFR p.L858R + p.T790M)", "result": "> 31.6", "unit": "µM"},
      {"measurement": "IC50", "setting": "Homo sapiens, NCI-H2228, read-out: IC50 in cell proliferation assay, NCI-H2228 cell line (EML4-ALK)", "result": "> 31.6", "unit": "µM"},
      {"measurement": "IC50", "setting": "Homo sapiens, OVCAR-3, read-out: IC50 in cell proliferation assay, cell line OVCAR-3", "result": "> 31.6", "unit": "µM"},
      {"measurement": "IC50", "setting": "Homo sapiens, PFSK-1, read-out: IC50 in cell proliferation assay, cell line PFSK-1", "result": "> 31.6", "unit": "µM"},
      {"measurement": "IC50", "setting": "Homo sapiens, RL95-2, read-out: IC50 in cell proliferation assay, cell line RL95-2 (EGFR p.A289V)", "result": "> 31.6", "unit": "µM"},
      {"measurement": "IC50", "setting": "Homo sapiens, RPMI-7951, read-out: IC50 in cell proliferation assay, cell line RPMI-7951 (BRAF p.V600E)", "result": 26.5, "unit": "µM"},
      {"measurement": "IC50", "setting": "Homo sapiens, RS4-11, read-out: IC50 in cell proliferation assay, cell line RS4;11", "result": "> 31.6", "unit": "µM"},
      {"measurement": "IC50", "setting": "Homo sapiens, Rec1, read-out: IC50 in cell proliferation assay, cell line REC-1", "result": 16, "unit": "µM"},
      {"measurement": "IC50", "setting": "Homo sapiens, SHP77, read-out: IC50 in cell proliferation assay, cell line SHP-77", "result": "> 31.6", "unit": "µM"},
      {"measurement": "IC50", "setting": "Homo sapiens, SK-BR-3, read-out: IC50 in cell proliferation assay, cell line SK-BR-3 (ERBB2 amplification)", "result": "> 31.6", "unit": "µM"},
      {"measurement": "IC50", "setting": "Homo sapiens, SK-N-AS, read-out: IC50 in cell proliferation assay, cell line SK-N-AS", "result": "> 31.6", "unit": "µM"},
      {"measurement": "IC50", "setting": "Homo sapiens, SK-N-FI, read-out: IC50 in cell proliferation assay, cell line SK-N-FI", "result": "> 31.6", "unit": "µM"},
      {"measurement": "IC50", "setting": "Homo sapiens, SK-N-MC, read-out: IC50 in cell proliferation assay, cell line SK-N-MC", "result": "> 31.6", "unit": "µM"},
      {"measurement": "IC50", "setting": "Homo sapiens, SK-N-SH, read-out: IC50 in cell proliferation assay, cell line SK-N-SH (ALK p.F1174L)", "result": "> 31.6", "unit": "µM"},
      {"measurement": "IC50", "setting": "Homo sapiens, SNU-5, read-out: IC50 in cell proliferation assay, cell line SNU-5 (MET amplification)", "result": "> 31.6", "unit": "µM"},
      {"measurement": "IC50", "setting": "Homo sapiens, SNU-16, read-out: IC50 in cell proliferation assay, cell line SNU-16 (FGFR2 amplification)", "result": 8.76, "unit": "µM"},
      {"measurement": "IC50", "setting": "Homo sapiens, SNU-C2B, read-out: IC50 in cell proliferation assay, cell line SNU-C2B (EGFR p.R165Q)", "result": "> 31.6", "unit": "µM"},
      {"measurement": "IC50", "setting": "Homo sapiens, SU-DHL-1, read-out: IC50 in cell proliferation assay, cell line SU-DHL-1 (NPM1-ALK)", "result": "> 31.6", "unit": "µM"},
      {"measurement": "IC50", "setting": "Homo sapiens, SU-DHL-6, read-out: IC50 in cell proliferation assay, cell line SU-DHL-6", "result": "> 31.6", "unit": "µM"},
      {"measurement": "IC50", "setting": "Homo sapiens, SUP-T1, read-out: IC50 in cell proliferation assay, cell line SUP-T1", "result": "> 31.6", "unit": "µM"},
      {"measurement": "IC50", "setting": "Homo sapiens, SW48, read-out: IC50 in cell proliferation assay, cell line SW48 (EGFR p.G719S)", "result": "> 31.6", "unit": "µM"},
      {"measurement": "IC50", "setting": "Homo sapiens, SW480, read-out: IC50 in cell proliferation assay, cell line SW480", "result": "> 31.6", "unit": "µM"},
      {"measurement": "IC50", "setting": "Homo sapiens, SW626, read-out: IC50 in cell proliferation assay, cell line SW626", "result": "> 31.6", "unit": "µM"},
      {"measurement": "IC50", "setting": "Homo sapiens, SW780, read-out: IC50 in cell proliferation assay, cell line SW780 (FGFR3-BAIAP2L1)", "result": 5.07, "unit": "µM"},
      {"measurement": "IC50", "setting": "Homo sapiens, SW837, read-out: IC50 in cell proliferation assay, cell line SW837", "result": "> 31.6", "unit": "µM"},
      {"measurement": "IC50", "setting": "Homo sapiens, SW872, read-out: IC50 in cell proliferation assay, cell line SW872 (BRAF p.V600E)", "result": "> 31.6", "unit": "µM"},
      {"measurement": "IC50", "setting": "Homo sapiens, SW900, read-out: IC50 in cell proliferation assay, cell line SW900", "result": "> 31.6", "unit": "µM"},
      {"measurement": "IC50", "setting": "Homo sapiens, SW948, read-out: IC50 in cell proliferation assay, cell line SW948", "result": 19.9, "unit": "µM"},
      {"measurement": "IC50", "setting": "Homo sapiens, SW982, read-out: IC50 in cell proliferation assay, cell line SW982 (BRAF p.V600E)", "result": "> 31.6", "unit": "µM"},
      {"measurement": "IC50", "setting": "Homo sapiens, SW-620, read-out: IC50 in cell proliferation assay, cell line SW620", "result": "> 31.6", "unit": "µM"},
      {"measurement": "IC50", "setting": "Homo sapiens, T98G, read-out: IC50 in cell proliferation assay, cell line T98G", "result": "> 31.6", "unit": "µM"},
      {"measurement": "IC50", "setting": "Homo sapiens, TCC-SUP, read-out: IC50 in cell proliferation assay, cell line TCCSUP", "result": "> 31.6", "unit": "µM"},
      {"measurement": "IC50", "setting": "Homo sapiens, THP-1, read-out: IC50 in cell proliferation assay, cell line THP-1", "result": "> 31.6", "unit": "µM"},
      {"measurement": "IC50", "setting": "Homo sapiens, U2OS, read-out: IC50 in cell proliferation assay, cell line U2OS", "result": "> 31.6", "unit": "µM"},
      {"measurement": "IC50", "setting": "Homo sapiens, U-87 MG, read-out: IC50 in cell proliferation assay, cell line U-87MG ATCC", "result": "> 31.6", "unit": "µM"},
      {"measurement": "IC50", "setting": "Homo sapiens, U-118-MG, read-out: IC50 in cell proliferation assay, cell line U-118MG", "result": "> 31.6", "unit": "µM"},
      {"measurement": "IC50", "setting": "Homo sapiens, UMUC3, read-out: IC50 in cell proliferation assay, cell line UM-UC-3", "result": "> 31.6", "unit": "µM"},
      {"measurement": "IC50", "setting": "Hs766T, read-out: IC50 in cell proliferation assay, Hs 766T cell line", "result": "> 31.6", "unit": "µM"},
      {"measurement": "IC50", "setting": "L-82, read-out: IC50 in cell proliferation assay, L-82 cell line (NPM1-ALK)", "result": "> 31.6", "unit": "µM"},
      {"measurement": "IC50", "setting": "Rh30, read-out: IC50 in cell proliferation assay, cell line Rh30", "result": "> 31.6", "unit": "µM"},
      {"measurement": "IC50", "setting": "read-out: IC50 in cell proliferation assay, 11-18 cell line (EGFR p.L858R)", "result": "> 31.6", "unit": "µM"},
      {"measurement": "IC50", "setting": "read-out: IC50 in cell proliferation assay, Hs 852.T cell line", "result": "> 31.6", "unit": "µM"},
      {"measurement": "IC50", "setting": "read-out: IC50 in cell proliferation assay, JAR cell line", "result": "> 31.6", "unit": "µM"},
      {"measurement": "IC50", "setting": "read-out: IC50 in cell proliferation assay, cell line 5637", "result": 18.3, "unit": "µM"},
      {"measurement": "IC50", "setting": "read-out: IC50 in cell proliferation assay, cell line A-388", "result": "> 31.6", "unit": "µM"},
      {"measurement": "IC50", "setting": "read-out: IC50 in cell proliferation assay, cell line DB", "result": "> 31.6", "unit": "µM"},
      {"measurement": "IC50", "setting": "read-out: IC50 in cell proliferation assay, cell line DEL (NPM1-ALK)", "result": "> 31.6", "unit": "µM"},
      {"measurement": "IC50", "setting": "read-out: IC50 in cell proliferation assay, cell line ES-2 (BRAF p.V600E)", "result": "> 31.6", "unit": "µM"},
      {"measurement": "IC50", "setting": "read-out: IC50 in cell proliferation assay, cell line PA-1", "result": 17.3, "unit": "µM"},
      {"measurement": "IC50", "setting": "read-out: IC50 in cell proliferation assay, cell line PC-3", "result": "> 31.6", "unit": "µM"},
      {"measurement": "IC50", "setting": "read-out: IC50 in cell proliferation assay, cell line RD", "result": "> 31.6", "unit": "µM"},
      {"measurement": "IC50", "setting": "read-out: IC50 in cell proliferation assay, cell line RKO (BRAF p.V600E)", "result": "> 31.6", "unit": "µM"},
      {"measurement": "IC50", "setting": "read-out: IC50 in cell proliferation assay, cell line RL", "result": "> 31.6", "unit": "µM"},
      {"measurement": "IC50", "setting": "read-out: IC50 in cell proliferation assay, cell line RT-4 (FGFR3-TACC3)", "result": "> 31.6", "unit": "µM"},
      {"measurement": "IC50", "setting": "read-out: IC50 in cell proliferation assay, cell line SR (NPM1-ALK)", "result": 27.3, "unit": "µM"},
      {"measurement": "IC50", "setting": "read-out: IC50 in cell proliferation assay, cell line T24", "result": "> 31.6", "unit": "µM"},
      {"measurement": "IC50", "setting": "read-out: IC50 in cell proliferation assay, cell line TT (RET p.C634W)", "result": "> 31.6", "unit": "µM"},
      {"measurement": "IC50", "setting": "read-out: IC50 in cell proliferation assay, cell line VA-ES-BJ", "result": "> 31.6", "unit": "µM"}
    ]}
  ]
}
